From patent publication US20210308077A1, “COMBINATIONS INCLUDING BETA-ADRENORECEPTOR AGONISTS FOR TREATMENT OF PARKINSON`S DISEASE AND MOVEMENT DISORDERS” (The Brigham and Women`s Hospital, Inc., priority 2017, published 2021)
Entries after “also recorded” stand apart in the source; their conditions may differ.

What was measured:
[1] = tested on: NPCs carrying the SNCA triplication; assay: Resazurin viability assay in SNCA-triplication NPCs exposed to rotenone; type: cell-based, human; settings: 20 μM rotenone, 20 μM clenbuterol
Method: (§1) Patient-derived NPCs carrying the familial SNCA triplication were generated as described previously (28). NPCs were seeded at […] in 96-well plates (Greiner Cellcoat μClear) for HTS plate reader analysis (Polarstar Omega, BMG). For experiments with toxicants and inhibitors, NPCs were cultured under the following conditions for 18 hours unless specified differently in the experiment procedures: Standard NPC growth medium, growth medium plus 20 μM rotenone (Sigma).
For the Plate Reader HTS, each experiment was conducted with 6 replicates per cell line and treatment regimen. NPCs were treated with 20 μM clenbuterol for four days. Signals from individual wells were acquired with integration of fluorescence signals over 1 second duration by bottom read in orbital mode (8-spot measurements with 2 mm radius). Data analysis was performed using BMG Mars software. For data analysis of individual experiments, the mean±SD was plotted using GraphPad7. Non-directional Student's t-test was used for direct statistical comparisons. […]
For the Resazurin assay for reduction potential by NADPH levels, NPCs were prepared as above and then loaded with 3 μM C12-Resazurin (Ex/Em: 563 nm/587 nm) (Life Technologies) in medium (see above), for 30 min at 37° C. […] Relative C12-Resazurin fluorescence intensities were normalized to Hoechst 33342 fluorescence.

[2] = tested on: NPCs carrying the SNCA triplication; assay: MitoSox assay of mitochondria-associated superoxide in SNCA-triplication NPCs exposed to rotenone; type: cell-based, human; settings: 20 μM rotenone, 20 μM clenbuterol
Method: as §1
For the Plate Reader HTS, each experiment was conducted with 6 replicates per cell line and treatment regimen. NPCs were treated with 20 μM clenbuterol for four days. Signals from individual wells were acquired with integration of fluorescence signals over 1 second duration by bottom read in orbital mode (8-spot measurements with 2 mm radius). […]
For the MitoSox assay for the detection of mitochondria-associated superoxide levels, adherent NPCs in 96-well plates were incubated with 2 μM MitoSOX™ (Ex./Em. 510/580 nm) and MitoTracker® Green (485/520 nm) (both Life Technologies) in high glucose without phenol red (Life Technologies), containing supplements without antioxidants (Life Technologies) for 15 min at 37° C. in the dark. […] Fluorescence was detected by sequential readings, and MitoSOX™ signals were normalized to mitochondrial content (Mitotracker®) and cell number (Hoechst).

[3] = pharmacokinetics mouse study (plasma and brain, LC-MS/MS); type: in vivo
Method: The clenbuterol pharmacokinetic (PK) study was done in wild-type C57BL/6J male mice by ChemPartner Co., LTD in Shanghai. The study was done with 4 groups of four mice; one control group and three treatment groups with clenbuterol administered via intraperitoneal injection at dosages of 1, 5 and 10 mg/kg once every 24 hours. Following completion of the administration schedule, blood samples were collected at various time points (e.g. 0.25, 2, 8, and 24 hours), from the four mice per group per time point (final time point of 24 hours post injection). Mice were sacrificed following each blood collection and brains were removed and snap frozen. Substantia nigra was utilized for SNCA mRNA and protein analysis, whereas the other portions were used for PK studies. Plasma and brain samples were analyzed by LC-MS/MS for compound concentration at each of three concentrations and at each time point. Standard pharmacokinetic parameters (e.g. AUClast, AUCINF, terminal elimination half-life (t1/2), clearance, volume of distribution, time at maximum observed plasma concentration, etc.) were determined in both plasma and brain tissueby WinNonlin V 6.2 statistics software (Pharsight Corporation, California, USA) using a non-compartmental model.

H3K27Ac = assay: immunoblot with antibody against H3K27Ac in SK-N-MC cells; type: cell-based, human; settings: vs vehicle-treated cells
Method: For western blot analysis, protein samples (20 μg) were run on a 4-20% gradient SDS-polyacrylamide gel (Biorad) and transferred onto a polyvinylidene fluoride (PVDF) membrane filter (0.2 μm; Biorad) using an electroblot apparatus (Bio-Rad, Hercules, Calif.) at 100V for 1 h in transfer buffer (25 mM Tris-HCl, 192 mM glycine, 0.1% SDS, 20% (v/v) methanol). The membrane was incubated in blocking solution (50 mM Tris-HCl, 200 mM NaCl, 1 mM MgCl2, pH 7.4) containing 5% non-fat dry milk powder for 1 hour at room temperature. The membrane was processed through sequential incubations with primary antibody overnight at 4° C. followed by incubation with horseradish peroxidase-conjugated species specific secondary antibody at 1:250 dilutions (Thermo Scientific Pierce). Immunoreactive proteins on the membrane were visualized using the SuperSignal™ West Pico Chemiluminescent kit (Thermo Scientific Pierce). Scanned western blots were analyzed using ImageJ software, version 1.47. Pictures were inverted and usually the background signal from an empty lane was subtracted to obtain specific signals for each lane.

CC(C)(C)NCC(O)c1cc(Cl)c(N)c(Cl)c1 (stereo not drawn) [clenbuterol]
viability [1]: rescued viability | mitochondria associated superoxide production [2]: ameliorated this increased mitochondria associated superoxide production | brain concentration ([3]; C57BL/6J mice, 10 mg/kg intraperitoneal vs 1 and 5 mg/kg): highest | brain/plasma ratio ([3]; C57BL/6J mice, 1, 5, or 10 mg/kg intraperitoneal, 24 hours): increased with doses of 1, 5, or 10 mg of drug per kilogram body weight; also recorded: highest brain/plasma ratio | blood-brain barrier crossing ([3]; wild type C57BL/6J mice, intraperitoneal): crossed the blood-brain barrier | H3K27Ac levels (Western blotting) (H3K27Ac): decreased
